SMILES strings stand for the structures. Where only a bound is given, the exact number is not on record here.

One may read the IC50 as the concentration at which inhibition is half-maximal.

T1 sequence (P14902 whole entry): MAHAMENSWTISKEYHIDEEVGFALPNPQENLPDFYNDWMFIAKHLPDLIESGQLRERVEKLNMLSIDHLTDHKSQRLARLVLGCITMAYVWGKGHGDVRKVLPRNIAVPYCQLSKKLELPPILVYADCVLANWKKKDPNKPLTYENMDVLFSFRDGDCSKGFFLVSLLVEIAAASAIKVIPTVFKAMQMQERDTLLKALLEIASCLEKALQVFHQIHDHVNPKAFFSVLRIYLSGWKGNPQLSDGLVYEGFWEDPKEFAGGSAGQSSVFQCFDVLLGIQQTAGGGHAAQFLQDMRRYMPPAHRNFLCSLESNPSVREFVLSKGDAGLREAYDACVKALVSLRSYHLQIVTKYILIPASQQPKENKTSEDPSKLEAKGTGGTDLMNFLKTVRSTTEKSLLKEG

The experiment addresses T1, human IDO1 (Homo sapiens, UniProt P14902).
T1 construct: expressed in transfected cells
Description: IDO inhibition assay in human IDO1/HEK293 cells (IDO1 HEK Human). It is filed as cell-based. The settings on record: HEK293 cells stably expressing human IDO1; 20 hours incubation; absorbance at 490 nm after Ehrlich reagent. A digest of the protocol:
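HEK293 clones stably expressing human IDO1 (10,000 cells/well, phenol red-free RPMI, 10% FBS) were treated with compound for 20 hours at 37° C. After 0.2% TCA and 30 min at 50° C., kynurenine was read with Ehrlich reagent at 490 nm. IC50 was normalised to DMSO (0%) and 500 nM reference standard (100%).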
As to `C=C(C)C1Oc2c(NC(=O)Nc3ccc(C)cc3)cc(-c3ccccc3C(=O)O)cc2C1c1ccccc1` (racemic) [Example 96], half-maximal inhibition (IC50) was put at 26 nM.

As to `Cc1ccc(NC(=O)Nc2cc(-c3ccccc3-c3nnn[nH]3)cc3c2OCCCC3C2CC2)cc1` (racemic) [Example 36, 1-(7-(2-(1H-tetrazol-5-yl)phenyl)-5-cyclopropyl-2,3,4,5-tetrahydrobenzo[b]oxepin-9-yl)-3-(p-tolyl)urea], inhibition was half-maximal at 7.6 nM (IC50).

For the molecule `Cc1ccc(CC(=O)Nc2cc(-c3ccccc3-c3nnn[nH]3)cc3c2OCCCC3c2ccccc2)cc1` (single isomer, unassigned) [Example 2-2, N-(7-(2-(1H-tetrazol-5-yl)phenyl)-5-phenyl-2,3,4,5-tetrahydrobenzo[b]oxepin-9-yl)-2-(p-tolyl)acetamide], the IC50 is 31.8 nM.

For `CC1CCOc2c(Nc3nc4ccccc4[nH]3)cc(-c3ccccc3-c3nnn[nH]3)cc2C1c1ccccc1` (single isomer, unassigned) [Example 52, N-(7-(2-(1H-tetrazol-5-yl)phenyl)-4-methyl-5-phenyl-2,3,4,5-tetrahydrobenzo[b]oxepin-9-yl)-1H-benzo[d]imidazol-2-amine], half-maximal inhibition (IC50) required 499 nM.

With `Cc1ccc(NC(=O)Nc2cc(-c3ccccc3-c3nnn[nH]3)cc3c2OCCCC3c2ccccc2)nc1` (single isomer, unassigned) [Example 3, 1-(7-(2-(1H-tetrazol-5-yl)phenyl)-5-phenyl-2,3,4,5-tetrahydrobenzo[b]oxepin-9-yl)-3-(5-methylpyridin-2-yl)urea], half-maximal inhibition (IC50) required 35.6 nM.

In turn, `Cc1ccc(NC(=O)Nc2cc(-c3ccccc3S(=O)(=O)NC(=O)c3ccccc3)cc3c2OCCCC3c2ccccc2)cc1` (single isomer, unassigned) [60 (En. 1), N-((2-(5-phenyl-9-(3-(p-tolyl)ureido)-2,3,4,5-tetrahydrobenzo[b]oxepin-7-yl)phenyl)sulfonyl)benzamide] returned a 50% inhibitory concentration (IC50) of more than 6000 nM.

`Cc1ccc(NC(=O)Nc2cc(-c3cc(F)ccc3C(=O)O)cc3c2O[C@@H](C)[C@@H]3CCC(F)(F)F)cc1` (relative stereo) [Example 119, rel-4-fluoro-2-((2R,3S)-2-methyl-7-(3-(p-tolyl)ureido)-3-(3,3,3-trifluoropropyl)-2,3-dihydrobenzofuran-5-yl)benzoic acid] had an IC50 of 785 nM.

Take `Cc1ccc(NC(=O)Nc2cc(-c3cc(F)ccc3C(=O)O)cc3c2O[C@@H](C)[C@H]3CCC(F)(F)F)cc1` (relative stereo) [Example 117, rel-4-fluoro-2-((2R,3R)-2-methyl-7-(3-(p-tolyl)ureido)-3-(3,3,3-trifluoropropyl)-2,3-dihydrobenzofuran-5-yl)benzoic acid]: the IC50 was determined as 2500 nM.

Take `Cc1ccc(NC(=O)Nc2cc(-c3ccccc3-c3nnn[nH]3)cc3c2O[C@@H](C)[C@@H]3CCC(F)(F)F)cc1` (relative stereo) [Example 118, rel-1-((2R,3S)-5-(2-(2H-tetrazol-5-yl)phenyl)-2-methyl-3-(3,3,3-trifluoropropyl)-2,3-dihydrobenzofuran-7-yl)-3-(p-tolyl)urea]: the IC50 was 23 nM.

Regarding `Cc1ccc(-c2nnn[nH]2)c(-c2cc(NC(=O)Nc3ccccc3F)c3c(c2)C(C2CC2)CCCO3)c1` (single isomer, unassigned) [Example 34-1], half-maximal inhibition (IC50) required 66 nM.

`c1ccc(C2CCCOc3c(Nc4nc5ccccc5o4)cc(-c4ccccc4-c4nnn[nH]4)cc32)cc1` (single isomer, unassigned) [53 (En. 2), N-(7-(2-(1H-tetrazol-5-yl)phenyl)-5-phenyl-2,3,4,5-tetrahydrobenzo[b]oxepin-9-yl) benzo[d] oxazol-2-amine] displayed a half-maximal inhibitory concentration (IC50) of 1.3 nM.

Molecule `Cc1ccc(NC(=O)Nc2cc(-c3ccccc3-c3nnn[nH]3)cc3c2OCC(O)C(O)C3c2ccccc2)cc1` (single isomer, unassigned) [9 (En. 1), 1-(7-(2-(1H-tetrazol-5-yl)phenyl)-3,4-dihydroxy-5-phenyl-2,3,4,5-tetrahydrobenzo[b]oxepin-9-yl)-3-(p-tolyl)urea] had an IC50 of more than 6000 nM.

With `Cc1ccc(CC(=O)Nc2cc(-c3ccccc3-c3nnn[nH]3)cc3c2OCCCC3C2CC2)cc1` (single isomer, unassigned) [37 (En. 1), N-(7-(2-(1H-tetrazol-5-yl)phenyl)-5-cyclopropyl-2,3,4,5-tetrahydrobenzo[b]oxepin-9-yl)-2-(p-tolyl)acetamide], the IC50 amounted to 221 nM.

`CC1CCOc2c(Nc3nc4ccccc4o3)cc(-c3ccccc3-c3nnn[nH]3)cc2C1c1ccccc1` (single isomer, unassigned) [Example 51, N-(7-(2-(1H-tetrazol-5-yl)phenyl)-4-methyl-5-phenyl-2,3,4,5-tetrahydrobenzo[b]oxepin-9-yl)benzo[d]oxazol-2-amine] had an IC50 of 3.8 nM.

In the case of `Cc1ccc(NC(=O)Nc2cc(-c3ccccc3-c3nnn[nH]3)cc3c2OCCC(C)C3C)cc1` (mixture of isomers) [Example 69, 1-(7-(2-(1H-tetrazol-5-yl)phenyl)-4,5-dimethyl-2,3,4,5-tetrahydrobenzo[b]oxepin-9-yl)-3-(p-tolyl)urea], inhibition was half-maximal at 14.6 nM (IC50).

In turn, `Cc1ccc(NC(=O)Nc2cc(-c3ccccc3-c3nnn[nH]3)cc3c2OCCC(C)C3c2ccccc2)cc1` (single isomer, unassigned) [Example 43, 1-(7-(2-(1H-tetrazol-5-yl)phenyl)-4-methyl-5-phenyl-2,3,4,5-tetrahydrobenzo[b]oxepin-9-yl)-3-(p-tolyl)urea] gave an IC50 of 30.1 nM.

For the molecule `Cc1ccc(-c2nnn[nH]2)c(-c2cc(Nc3ccc(Cl)cc3F)c3c(c2)C(c2ccccc2)CCCO3)c1` (single isomer, unassigned) [Example 75, N-(4-chloro-2-fluorophenyl)-7-(5-methyl-2-(1H-tetrazol-5-yl)phenyl)-5-phenyl-2,3,4,5-tetrahydrobenzo[b]oxepin-9-amine], the half-maximal inhibitory concentration (IC50) is 18.5 nM.

`Fc1ccc2nc(Nc3cc(-c4ccccc4-c4nnn[nH]4)cc4c3OCCCC4c3ccccc3)sc2c1` (single isomer, unassigned) [57 (En. 2), N-(7-(2-(1H-tetrazol-5-yl)phenyl)-5-phenyl-2,3,4,5-tetrahydrobenzo[b]oxepin-9-yl)-6-fluorobenzo[d]thiazol-2-amine] gave an IC50 of 189 nM.

In turn, `Cc1cnc(Nc2cc(-c3ccccc3-c3nnn[nH]3)cc3c2OCCCC3c2ccccc2)nc1` (single isomer, unassigned) [55 (En. 2), N-(7-(2-(1H-tetrazol-5-yl)phenyl)-5-phenyl-2,3,4,5-tetrahydrobenzo[b]oxepin-9-yl)-5-methylpyrimidin-2-amine] had a concentration for half-maximal inhibition (IC50) of 77.6 nM.

The molecule `C=CC1Oc2c(NC(=O)Nc3ccc(C)cc3)cc(C3(c4nnn[nH]4)CC3)cc2C1c1ccccc1` (racemic) [Example 112, (+/−)1-(5-(1-(1H-tetrazol-5-yl)cyclopropyl)-3-phenyl-2-vinyl-2,3-dihydrobenzofuran-7-yl)-3-(p-tolyl)urea] had a half-maximal inhibitory concentration (IC50) of 7900 nM.

In turn, `CC1(C)Oc2c(NC(=O)Nc3ccc(C(F)(F)F)nc3)cc(-c3ccccc3-c3nnn[nH]3)cc2C1c1ccccc1` (racemic) [Example 127, (±)-1-(5-(2-(1H-Tetrazol-5-yl)phenyl)-2,2-dimethyl-3-phenyl-2,3-dihydrobenzofuran-7-yl)-3-(6-(trifluoromethyl)pyridin-3-yl)urea] displayed a half-inhibitory concentration (IC50) of 2100 nM.

For `Cc1cc(NC(=O)Nc2cc(-c3ccccc3-c3nnn[nH]3)cc3c2OCCCC3c2ccccc2)no1` (centres unmarked) [Example 15, 1-(7-(2-(1H-tetrazol-5-yl)phenyl)-5-phenyl-2,3,4,5-tetrahydrobenzo[b]oxepin-9-yl)-3-(5-methylisoxazol-3-yl)urea], half-maximal inhibition (IC50) was put at 232 nM.

`Cc1ccc(CC(=O)Nc2cc(-c3ccccc3-c3nnn[nH]3)cc3c2OCCCC3C(C)C)cc1` (racemic) [25 (Rac), N-(7-(2-(1H-tetrazol-5-yl)phenyl)-5-isopropyl-2,3,4,5-tetrahydrobenzo[b]oxepin-9-yl)-2-(p-tolyl)acetamide] registered an IC50 of 29.9 nM.

In the case of `Cc1ccc(-c2nnn[nH]2)c(-c2cc(Nc3ccc(Cl)cc3)c3c(c2)C(c2ccccc2)CCCO3)c1` (single isomer, unassigned) [Example 78, N-(4-chlorophenyl)-7-(5-methyl-2-(1H-tetrazol-5-yl)phenyl)-5-phenyl-2,3,4,5-tetrahydrobenzo[b]oxepin-9-amine], half-maximal inhibition (IC50) was put at 8.5 nM.

The molecule `Cc1ccc(NC(=O)Nc2cc(-c3ccccc3-c3nc(=O)o[nH]3)cc3c2OCCCC3C2CC2)cc1` (single isomer, unassigned) [Example 33-1, 1-(5-cyclopropyl-7-(2-(5-oxo-2,5-dihydro-1,2,4-oxadiazol-3-yl)phenyl)-2,3,4,5-tetrahydrobenzo[b]oxepin-9-yl)-3-(p-tolyl)urea] had a half-inhibitory concentration (IC50) of 1.2 nM.

Take `C=C[C@H]1Oc2c(NC(=O)Nc3ccc(C)cc3)cc(-c3ccccc3-c3nnn[nH]3)cc2[C@@H]1CCC(F)(F)F` (single isomer, unassigned) [Example 130, 1-((trans)-5-(2-(1H-tetrazol-5-yl)phenyl)-3-(3,3,3-trifluoropropyl)-2-vinyl-2,3-dihydrobenzofuran-7-yl)-3-(p-tolyl)urea]: inhibition was half-maximal at 40 nM (IC50).

Turning to `C=C[C@@H]1Oc2c(NC(=O)Nc3ccc(C)cc3)cc(-c3ccccc3-c3nnn[nH]3)cc2[C@H]1c1ccccc1` (single isomer, unassigned) [Example 89, 1-((trans)-5-(2-(1H-tetrazol-5-yl)phenyl)-3-phenyl-2-vinyl-2,3-dihydrobenzofuran-7-yl)-3-(p-tolyl)urea], the midpoint of inhibition, the IC50, lay at 13 nM.

Turning to `C=C[C@H]1Oc2c(NC(=O)Nc3ccc(C)cc3)cc(-c3ccccc3-c3nnn[nH]3)cc2[C@@H]1c1ccccc1` (single isomer, unassigned) [Example 88, 1-((trans)-5-(2-(1H-tetrazol-5-yl)phenyl)-3-phenyl-2-vinyl-2,3-dihydrobenzofuran-7-yl)-3-(p-tolyl)urea], it took 105 nM to reach half-maximal inhibition (IC50).

Regarding `C=CC1Oc2c(NC(=O)Nc3ccc(C)cc3)cc(-c3cc(F)ccc3C(=O)O)cc2C1c1ccccc1` (racemic) [Example 98], the IC50 amounted to 87 nM.

These data come from patent US12145927B2 (BRISTOL-MYERS SQUIBB COMPANY, priority 2018, dated 2024).
